# Like-named read-outs stand apart in the source and are kept apart here.
# Experiments:
# IL-1β = assay: PHA-induced IL-1β release from human leucocytes (buffy coats); assay type: cell-based; settings: Leucocyte, 30 min pre-incubation, PHA 5 μg/ml 16 hours
# Description: (§1) The objective of this study was to assess the ability of norketotifen to inhibit cytokine release from stimulated human leucocytes.
# (§2) The study was conducted in two phases. The first phase included optimization of the test methodology and including dose-range finding studies, using buffy coats from 3 human donors, stimulated with phytohemagglutinin (PHA). Following optimization of the test conditions, a final protocol was issued. In the ensuing Main Study, white blood cells (buffy coats) from 5 healthy human donors were stimulated with PHA, 5 μg/ml. The concentrations of the test article and the duration of exposure were optimized to obtain acceptable dose-response ratios. Thus, the inhibitory effects of three concentrations of NK and one concentration of ketotifen were evaluated in the Main Study. The buffy coats containing white blood cells from 5 male human donors were resuspended in assay media and were pre-incubated for 30 min with either vehicle/saline, ketotifen 4.3 μg/ml (10 μM) and norketotifen 0.4 μg/ml, 4.1 μg/ml and 41 μg/ml (1.0; 10 and 100 μM). Following these preincubations, the white blood cells were stimulated for 16 hours with PHA, 5 μg/ml. The cell system supernatants were then harvested and stored frozen pending analyses.
# (§3) The concentration of the test articles had to be high in this ex vivo study since the test kit used a high concentration of the agonist PHA (5 μg/ml) and a long exposure time (16 hrs).
# [1] = Dermal and plasma concentrations of NK after oral dosing to dogs; assay type: in vivo
# Description: The purpose was to determine drug concentrations and calculate pharmacokinetics in the skin and plasma of dogs during and following daily oral administration of S-NK-HF (the S-isomer of norketotifen hydrogen fumarate) for four weeks.
# Five male beagle dogs, weighing 11.2-13.9 kg (2-4 years old) were included in the study. All animals were administered p.o. doses of the test article 8.0 mg/kg/day as a hydrogen fumarate salt, equal to 5.6 mg/kg/day of the free base. A single isomer of NK was used, since an objective of this study was also to assess the racemization of the NK isomers. The animals were dosed once daily for four weeks followed by daily observations and tissue sampling for an additional two-week washout period.
# Multiple plasma samples and skin biopsies were taken from each dog on Day 1 and Day 28 of drug administration. The plasma and skin samplings were performed at pre-dose, and at 2, 6, 12, and 24 hours post-dose. Plasma and skin samples were also taken intermittently at predetermined intervals during the 28-days dosing period and up to the last day of the study, which was Day 42. Blood samples were taken from v. cephalica antebrachii. Skin biopsies were taken from the area between the mid ventral to lateral abdominal areas, using a 6 mm skin biopsy punch. Subcutaneous fat deposits were carefully trimmed from the skin samples and the skin samples were then weighed. All plasma and skin samples were analyzed using LC/MS/MS methodology.
# INF-γ = assay: PHA-induced INF-γ release from human leucocytes (buffy coats); assay type: cell-based; settings: Leucocyte, 30 min pre-incubation, PHA 5 μg/ml 16 hours
# Description: as §1, §2, §3
smiles,measurement,setting,value
"O=C1Cc2ccccc2C(=C2CCNCC2)c2ccsc21 (racemic) [NK, norketotifen]",inhibition at 1 µM,IL-1β; 1 uM,0%
same,inhibition at 10 µM,IL-1β; 10 uM,16.2%
same,inhibition at 100 µM,IL-1β; 100 uM,57%
same,half-life,"[1]; male, beagle, dog, plasma, oral, 8 mg/kg/day, plasma, read-out: Plasma half-life",10 to 11 h
same,half-life,"[1]; male, beagle, dog, plasma, po, 8 mg/kg/day, oral S-NK 8.0 mg/kg/day for 28 days, dogs (N = 5), plasma, read-out: T1/2 Plasma (converted)",10.5 h
same,half-life,"[1]; male, beagle, dog, skin, oral, 8 mg/kg/day, skin, read-out: Dermal half-life (duration of high concentration in the skin)",≤ 168 h
same,Kp,"[1]; male, beagle, dog, skin, oral, 8 mg/kg/day, under laboratory conditions, read-out: Skin concentration relative to plasma concentration",≤ 16
same,half-life,"[1]; male, beagle, dog, skin, po, 8 mg/kg/day, oral S-NK 8.0 mg/kg/day for 28 days, dogs (N = 5), skin, read-out: T1/2 Skin (converted)",168 h
same,MRT,"[1]; male, beagle, dog, oral S-NK 8.0 mg/kg/day for 28 days, dogs (N = 5), plasma, read-out: MRT Plasma",12.8 h
same,MRT,"[1]; male, beagle, dog, oral S-NK 8.0 mg/kg/day for 28 days, dogs (N = 5), skin, read-out: MRT Skin",169 h
same,AUC∞ Plasma,"[1]; oral S-NK 8.0 mg/kg/day for 28 days, dogs (N = 5), plasma",3286 ng*hr/mL or g
same,AUC∞ Skin,"[1]; oral S-NK 8.0 mg/kg/day for 28 days, dogs (N = 5), skin",54187 ng*hr/mL or g
same,Dermal half-life in skin of dogs (in words),[1]; skin of dogs,one week
same,inhibition at 1 µM,INF-γ; 1 uM,0%
same,inhibition at 10 µM,INF-γ; 10 uM,16.5%
same,inhibition at 100 µM,INF-γ; 100 uM,71.6%

# From patent US20230000852A1, “Treatment of Dermal Cytokine Storm Syndromes” (Bridge Pharma, Inc., priority 2021, published 2023)
